Reference: US20200121627A1, “COMPOSITION COMPRISING AZELAIC ACID OR AS ACTIVE INGREDIENTS FOR MUSCLE STRENGTHENING, DEVELOPMENT, DIFFERENTIATION, REGENERATION OR INHIBITING MUSCLE ATROPHY” (priority 2018, published 2020)

Legend:
[1] = tested on: nicotinamide adenine dinucleotide phosphate (NADP) oxidase; conditions: cited from earlier work
[2] = tested on: interleukin-1β, interleukin-6, and TNF-α; conditions: human epidermal cells treated with 20 mM azelaic acid; cited from earlier work
[3] = tested on: IGF1; experiment: Real-time PCR mRNA expression in mouse myoblasts; type: cell-based; conditions: azelaic acid treatment of dexamethasone-treated cells, vs Dexa
Protocol: (§1) Mouse myoblast cell line (C2C12 cells) was purchased from ATCC (Manassas, Va., USA) and used. The purchased cell line was incubated in an incubator at 37° C., 5% CO2 using 10% fetal bovine serum medium (Gibco-BRL) and used for experiments. When the cell line reached a confluency of about 80%, the cells were differentiated into myotubes using 2% horse serum medium (Gibco-BRL). In order to identify muscle-potentiating efficacy, treatment with 100 μM azelaic acid (CAS Number 123-99-9, Sigma) was performed for two days from the day when differentiation began, and a control was treated with 100 μM dimethyl sulfoxide (DMSO; Sigma). In order to identify muscle loss-inhibitory efficacy, combined treatment with 50 μM dexamethasone (dexa; Sigma) and 100 μM azelaic acid (CAS Number 123-99-9, Sigma) was performed for two days from the 4th day of differentiation.
(§2) 334 μl of Trizol solution was added per 1×10^7 cells of mouse myoblasts, and grinding was performed. Then, the resultant was centrifuged at 4° C. and 12,000×g for 10 minutes. The supernatant was transferred to a new tube. Then, 67 μl of chloroform was added thereto and vortexing was performed. Again, the supernatant was transferred to a new tube, and isopropanol was added so that a ratio of the supernatant to isopropanol was 1:1. After performing vigorous shaking 10 times, the tube was allowed to stand at room temperature for 15 minutes, and centrifuged at 12,000×g and 4° C. for 10 minutes.

[4] = tested on: MAFbx/Atrogin1; experiment: Real-time PCR mRNA expression in mouse myoblasts; type: cell-based; conditions: azelaic acid treatment of dexamethasone-treated cells, vs Dexa
Protocol: as §1, §2

[5] = tested on: MuRF1; experiment: Real-time PCR mRNA expression in mouse myoblasts; type: cell-based; conditions: azelaic acid treatment of dexamethasone-treated cells, vs Dexa
Protocol: as §1, §2

[6] = tested on: myostatin; experiment: Real-time PCR mRNA expression in mouse myoblasts; type: cell-based; conditions: azelaic acid treatment of dexamethasone-treated cells, vs Dexa
Protocol: as §1, §2

[7] = ethanol and water; cited from earlier work
[8] = tested on: various strains of skin microorganisms; conditions: 0.5 mol/l (8.4% w/v) azelaic acid solution, 24 hours, all bacterial strains; cited from earlier work
[9] = tested on: rats; conditions: oral administration; cited from earlier work
[10] = tested on: p-p70S6K1; experiment: Western blotting in mouse myoblasts; type: cell-based; conditions: azelaic acid treatment of dexamethasone-treated cells, vs Dexa
Protocol: as §1, with “In order to identify muscle loss-inhibitory efficacy, combined treatment with 50 μM dexamethasone (dexa; Sigma) and 100 μM azelaic acid (CAS Number 123-99-9, Sigma) was performed for two days from the 4th day of differentiation.” left out
(§3) In order to perform Western blotting in cells, to each well from which the medium was removed was added a lysis buffer that contains 500 μL of 100 mM Tris-HCl, pH 7.4, 5 mM EDTA, 50 mM sodium pyrophosphate, 50 mM NaF, 100 mM orthovanadate, 1% Triton X-100, 1 mM phenylmethanesulfonyl fluoride, 2 μg/mL aprotinin, 1 μg/mL pepstatin A, and 1 μg/mL leupeptin, and the cells were lysed to obtain a lysate. […] Then, the middle layer was taken and proteins were quantified according to the Bradford method (Bio-Rad). 40 μg of the quantified proteins were electrophoresed on SDS polyacrylamide gel and then transferred to nitrocellulose membranes (Amersham, Buckinghamshire, UK).

[11] = tested on: p-4E-BP1; experiment: Western blotting in mouse myoblasts; type: cell-based; conditions: azelaic acid treatment of dexamethasone-treated cells, vs Dexa
Protocol: as §1, with “In order to identify muscle loss-inhibitory efficacy, combined treatment with 50 μM dexamethasone (dexa; Sigma) and 100 μM azelaic acid (CAS Number 123-99-9, Sigma) was performed for two days from the 4th day of differentiation.” left out
as §3

[12] = tested on: Mouse myoblast cell line (C2C12 cells); experiment: Myotube length in differentiating mouse myoblasts (muscle-potentiating efficacy), Wright-Giemsa staining; type: cell-based; conditions: 100 μM azelaic acid for two days from the day differentiation began, vs DMSO control
Protocol: (§4) Mouse myoblast cell line (C2C12 cells) was purchased from ATCC (Manassas, Va., USA) and used. The purchased cell line was incubated in an incubator at 37° C., 5% CO2 using 10% fetal bovine serum medium (Gibco-BRL) and used for experiments. […] In order to identify muscle-potentiating efficacy, treatment with 100 μM azelaic acid (CAS Number 123-99-9, Sigma) was performed for two days from the day when differentiation began, and a control was treated with 100 μM dimethyl sulfoxide (DMSO; Sigma). […] Sigma) and 100 μM azelaic acid (CAS Number 123-99-9, Sigma) was performed for two days from the 4th day of differentiation. The cells were washed twice with phosphate buffered saline (PBS), and then fixed for 10 minutes with 100% methanol. […] Co., Ltd., Seoul, South Korea) that specifically stains myotubes. Stained myotubes were photographed at ×40 magnification using a fluorescence microscope (IX 71, Olympus) and analyzed using Image J software (USA). Six sections of each well were randomly selected and micrographed. Lengths of at least 100 myotubes from each well were analyzed (3 repetitions/group).

[13] = tested on: Mouse myoblast cell line (C2C12 cells); experiment: Myotube length in dexamethasone-treated mouse myoblasts (muscle loss-inhibitory efficacy), Wright-Giemsa staining; type: cell-based; conditions: 100 μM azelaic acid combined with 50 μM dexamethasone for two days from the 4th day of differentiation
Protocol: as §4

O=C(O)CCCCCCCC(=O)O [azelaic acid, nonanedioic acid]
reaction of NADP oxidase (antioxidant effect) [1]: inhibiting | mRNA expression and protein secretion of interleukin-1β, interleukin-6, and TNF-α by UVB [2]: inhibition | expression of IGF1 gene [3]: significantly increased | expression of MAFbx/Atrogin1 gene [4]: significantly decreased | expression of MuRF1 gene [5]: significantly decreased | expression of myostatin gene [6]: significantly decreased | solubility [7]: soluble | decreased viability of bacterial strains [8]: at least 40 fold | LD50 [9]: 15,800 mg/kg | amount of p-p70S6K1 protein [10]: significantly increased | amount of p-4E-BP1 protein [11]: significantly increased | increase in myotube length [12]: 62% | increase in the myotube length which has decreased due to dexamethasone [13]: 62%
